Experimental findings from ChEMBL document CHEMBL6127082, “Genome-Led Discovery of the Antibacterial Cyclic Lipopeptide Kutzneridine A and Its Silent Biosynthetic Gene Cluster from Kutzneria Species” (2024) are described below.

Assay [1] deals with Staphylococcus aureus. Kind of assay: Antibacterial activity against methicillin-resistant Staphylococcus aureus assessed as inhibition of bacterial growth. The assay is classed as functional.
The subject of a further assay is Aspergillus fumigatus. Briefly: Antifungal activity against Aspergillus fumigatus ATCC46645 assessed as inhibition of […] growth. The assay is classed as functional, organism-based.
The subject of assay [2] is Enterococcus faecium. Kind of assay: Antibacterial activity against vancomycin A-resistant Enterococcus faecium assessed as inhibition of bacterial growth. The assay is classed as functional.
The test system of the next assay is Acinetobacter baumannii. Kind of assay: Antibacterial activity against Acinetobacter baumannii ATCC19606 assessed as inhibition of bacterial growth. The assay is classed as functional, organism-based.
The test system of assay [3] is Enterococcus faecium. Briefly: Antibacterial activity against vancomycin B-resistant Enterococcus faecium assessed as inhibition of bacterial growth. The assay is classed as functional.
In assay [4] the test system is Staphylococcus aureus. Briefly: Antibacterial activity against methicillin-resistant Staphylococcus aureus MB5395 assessed as inhibition of bacterial growth. The assay is classed as functional.

In brackets after ≈: the same amount, converted by molar mass. Activity calls are given as the source filed them. No cut-off for these calls is given here.

For `CCCCC/C=C/C=C/C(=O)NC[C@@H]1NC(=O)CNC(=O)[C@@H](N)CNC(=O)[C@@H](Cc2ccc(OC)cc2)NC1=O`, the MIC95 in the assay on Staphylococcus aureus [1] was 16 µg/mL (≈ 28.7 µM).

In the case of `CCCCC/C=C/C=C/C(=O)NC[C@@H]1NC(=O)CN2C(=O)[C@H](CNC(=O)[C@@H](Cc3ccc(OC)cc3)NC1=O)NC2(C)C`, the MIC95 turned out to be 16 µg/mL (≈ 26.8 µM) with Staphylococcus aureus [1], 16 µg/mL (≈ 26.8 µM) with Enterococcus faecium [2], 8 µg/mL (≈ 13.4 µM) in the assay on Enterococcus faecium [3] and 4 µg/mL (≈ 6.7 µM) with Staphylococcus aureus [4]. In addition, the outcome in the assay with Aspergillus fumigatus and with Acinetobacter baumannii was inactive.
